According to patent US9358276B2, “Methods of diagnosing and treating small intestinal bacterial overgrowth (SIBO) and SIBO-related conditions” (Cedars-Sinai Medical Center, priority 1999, dated 2016):

Tests used:
[1] = system: isolated segment of guinea pig colon; details: Wade et al. 1996; slower as dose increased; cited from earlier work
[2] = system: isolated canine ileum; details: infused into isolated canine ileum; Fox-Threlkeld et al. 1993; cited from earlier work
[3] = system: intestinal transit; test: Intestinal transit in multi-fistulated dogs, cumulative % recovery of 99mTc-DTPA; type: in vivo, dog; details: n=2
From the text: The experiments described below are based on a previously described chronic multi-fistulated dog model, employing surgically fistulated male or female mongrel dogs weighing about 25 kg each. (Lin, H. C. et al., Inhibition of gastric emptying by glucose depends on length of intestine exposed to nutrient, Am. J. Physiol. 256:G404-G411 [1989]). The small intestines of the dogs were each about 300 cm long from the pylorus to the ileal-cecal valve. The duodenal fistula was situated 15 cm from the pylorus; the mid-gut fistula was situated 160 cm from the pylorus. Occluding Foley catheters (balloon catheters that are inflated to produce a water-tight seal with the lumenal surface) were placed into the distal limb of a duodenal fistula and a mid-gut fistula, fat or other test agents were administered lumenally to the thus compartmentalized Aproximal≅ section of the gut, i.e., between the fistulas, or to the compartmentalized Adistal≅ section of the gut, i.e., beyond the mid-gut fistula. Perfusate was pumped into a test section through the catheter at a rate of 2 mL/minute. Test agents were administered along with buffer perfusate, but some test agents were administered intravenously, where specifically noted.
Intestinal transit measurements were made by tracking the movement of a liquid marker across the approximately 150 cm intestinal test segment by delivering about 20 μCi ^99mTc chelated to diethyltriamine pentaacetic acid (DTPA)(Cunningham, K. M. et al., Use of technicium-99m (V)thiocyanate to measure gastric emptying of fat, J. Nucl. Med. 32:878-881 [1991]) as a bolus into the test segment after 60 minutes of a 90-minute perfusion. The output from the mid-gut fistula was collected every 5 min thereafter for 30 minutes, which period is illustrated in FIGS. 9-23. Using a matched dose of ^99mTc to represent the original radioactivity (Johansson, C., Studies of gastrointestinal interactions, Scand. J. Gastroenterol. 9(Suppl 28):1-60 [1974]; Zierler, K., A simplified explanation of the theory of indicator dilution for measurement of fluid flow and volume and other distributive phenomena, Bull. John Hopkins 103:199-217 [1958]), the radioactivity delivered into the animal as well as the radioactivity of the recovered fistula output were all measured using a gamma well counter. After correcting all counts to time zero, intestinal transit was calculated as the cumulative percent recovery of the delivered ^99mTc-DTPA. This method has been well validated over the years and appreciated for its advantage of minimal inadvertent marker loss. […] There was a very high level of marker recovery, with 90% of the marker recovered by 30 minutes and 98% of the marker recovered by 45 minutes.

[4] = system: release of 5-HT from the proximal gut; test: 5-HT released by the proximal gut (ELISA of mid-gut fistula output); type: in vivo, dog; details: intravenous PYY (0.8 mg/kg/h); Control 140.1 μg
Protocol: To test the hypothesis that fat in the distal gut causes the release of 5-HT in the proximal gut, the amount of 5-HT collected from the output of the mid-gut fistula (proximal gut 5-HT) over a 90-minute period of buffer perfusion through both the duodenal and mid-gut fistulas (2 mL/min); buffer (control) or oleate (60 mM) was administered to the distal gut (n=1). The amount of 5-HT was determined using an ELISA kit specific for 5-HT (Sigma; Graham-Smith, D. G., The carcinoid syndrome, In: Topics in Gastroenterology, Truclove, S. C. and Lee, E. (eds.), Blackwells, London, p. 275 [1977]; Singh, S. M. et al., Concentrations of serotonin in plasma-a test for appendicitis?, Clin. Chem. 34:2572-2574 [1988]). The amount of 5-HT released by the proximal gut increased in response to fat in the distal gut from 100 μg in the control (buffer minus oleate) to 338 μg (buffer plus oleate to distal gut), showing that 5-HT is released in the proximal gut in response to fat in the distal gut. Thus, the release of 5-HT by the proximal gut can serve as a relayed signal for fat in the distal gut. The relayed release of 5-HT in the proximal gut in response to fat in the distal gut is consistent with Example 14(2), showing that slowing of intestinal transit by fat depends on an efferent 5-HT-mediated pathway to the proximal gut.
To test the hypothesis that 5-HT in the distal gut causes the release of 5-HT in the proximal gut, the amount of 5-HT collected from the output at the mid-gut fistula (Proximal gut 5-HT) over a 90-minute period of buffer perfusion through both the duodenal and mid-gut fistulas (2 mL/min each) was compared in the presence or absence of 5-HT (0.05 mg/kg/h) administered to the distal gut (n=1). 5-HT concentration was determined using an ELISA kit specific for 5-HT (Sigma). The amount of 5-HT released by the proximal gut increased from 156 μg in the control (minus distal 5-HT) to 450 μg (plus 5-HT to distal gut), implying that 5-HT is released by the proximal gut in response to 5-HT in the distal gut. Thus, the release of 5-HT by the proximal gut can serve as a relayed signal for distal gut 5-HT. This relayed release of 5-HT in the proximal gut explains the results of Example 14(6) showing that the slowing of intestinal transit by distal gut 5-HT was abolished by ondansetron in the proximal gut (efferent limb of response) as well as in the distal gut (afferent limb of response).
To test the hypothesis that the proximal gut releases 5-HT in response to lipid in the distal gut, we compared the amount of 5-HT in the output of the midgut fistula (i.e., proximal gut 5-HT) with buffered saline (control) or oleate in the distal gut. The amount of 5-HT collected over 90 min was measured using a 5-HT-specific ELISA test kit, as described herein above. Four dogs were tested.
The amount of 5-HT released from the proximal gut in response to intravenous PYY or buffered saline (Control) during buffer perfusion (2 mL/min over 90 minutes) through both the duodenal and mid-gut fistulas was measured to test the hypothesis that intravenous PYY (0.8 mg/kg/h) causes the release of 5-HT in the proximal gut. 5-HT was measured as in Example 14(9) above. The amount of 5-HT released by the proximal gut increased from 140.1 μg (Control) to 463.1 μg in response to intravenous PYY.

Compound	passage of a pellet through an isolated segment of guinea pig colon [1]	phasic circular muscle activity [2]	marker recovery ([3]; 30 μg PYY (0.8 mg/kg/h) intravenously, Buffer Control 78.1±2.2%)	marker recovery ([3]; IV PYY 0.8 μg/kg/h + lumenal normal saline, control 75.1±3.6%)	amount of 5-HT released by the proximal gut [4]
CNCCC(Oc1ccc(C(F)(F)F)cc1)c1ccccc1 (centres unmarked) [fluoxetine]	initially accelerated	–	–	–	–
PYY: Peptide YY, a physiological fat signal molecule that slows transit	–	dose-dependently increased	11.8±5.4%	17.1±11.0%	463.1 µg
